Measurements published in patent publication US3975433A, “1-(2,4-Dimethoxy-phenyl)-3-(2-hydroxyethyl)thiourea” (The Dow Chemical Company, priority 1975, dated 1976).

Experiments:
reserpine-induced ptosis = test: counteraction of reserpine-induced ptosis in mice (antidepressant properties); format: in vivo; conditions: for inhibition of reserpine-induced ptosis: mice, 60 mg/kg (i.p.), comparative trials, result in words
Description: The antidepressant properties of the thiourea employed in the methods of the present invention are determined by measuring their ability to counteract ptosis induced in animals by the intraperitoneal injection of reserpine. Graded doses (from about 2.1 to about 100 mg/kg) of the active compounds of this invention are administered intraperitoneally to groups of five mice each, followed 30 minutes later by an intraperitoneal injection of reserpine in an amont which is known to induce ptosis in mice. Similar groups of control mice are administered only reserpine. Forty-five minutes after the administration of reserpine, the presence or absence of ptosis is noted. The percent inhibition of ptosis is noted and the median effective dose (ED50) of each test ingredient which protected 50% of the test mice from reserpine-induced ptosis was calculated.

Ascaridia galli = test: control of Ascaridia galli in chickens (anthelmintic efficacy); format: in vivo; conditions: infected chickens; for activity in controlling Ascaridia: tested as controls, result in words, dose not separately stated
Description: The compound was evaluated for activity in the control of Ascaridia galli in chickens. The test chickens following infection with Ascaridia are held for at least 30 days to permit all worms to mature. The compound is evaluated for activity in two chickens which are caged together. The compound may be administered orally as a single oral dose or in the feed for four consecutive days. Anthelmintic efficacy of the compound against Ascaridia is determined by comparing the number of ascarids passed in the feces during the first 72 hours post treatment to the number of worms recovered at necropsy.
The following compounds were also tested as controls and found to have no activity in controlling Ascaridia: 1-(4-methoxyphenyl)-3-(2-hydroxyethyl)thiourea; 1-(2,4-dimethylphenyl)-3-(2-hydroxyethyl)thiourea; 1-(4-methylphenyl)-3-(2-hydroxyethyl)thiourea; and 1-(4-methoxy-2-methylphenyl)-3-(2-hydroxyethyl)thiourea.

COc1ccc(NC(=S)NCCO)cc1OC [1-(3,4-dimethoxyphenyl)-3-(2-hydroxyethyl)thiourea]
inhibition of reserpine-induced ptosis (reserpine-induced ptosis): did not inhibit

Cc1ccc(NC(=S)NCCO)c(C)c1 [1-(2,4-dimethylphenyl)-3-(2-hydroxyethyl)thiourea]
activity in controlling Ascaridia (Ascaridia galli): no activity

CN(C)CCCN1c2ccccc2CCc2ccccc21 [Imipramine]
ED50 (reserpine-induced ptosis; Mus musculus, ip, read-out: ED50 (median effective dose which protected 50% of the test mice from reserpine-induced ptosis)): 15 mg/kg

COc1ccc(NC(=S)NCCO)c(C)c1 [1-(4-methoxy-2-methylphenyl)-3-(2-hydroxyethyl)thiourea]
activity in controlling Ascaridia (Ascaridia galli): no activity

COc1ccccc1NC(=S)NCCO [1-(2-methoxyphenyl)-3-(2-hydroxyethyl)thiourea]
inhibition of reserpine-induced ptosis (reserpine-induced ptosis): did not inhibit

COc1ccc(NC(=S)NCCO)cc1 [1-(4-methoxyphenyl)-3-(2-hydroxyethyl)thiourea]
activity in controlling Ascaridia (Ascaridia galli): no activity

COc1ccc(NC(=S)NCCO)c(OC)c1 [Compound 1, 1-(2,4-dimethoxyphenyl)-3-(2-hydroxyethyl)thiourea]
activity (number of worms passed in the feces compared to those found at autopsy) (Ascaridia galli; 150 mg/kg, feces during first 72 hours post treatment): 50%

Cc1ccc(NC(=S)NCCO)cc1 [1-(4-methylphenyl)-3-(2-hydroxyethyl)thiourea]
activity in controlling Ascaridia (Ascaridia galli): no activity
